According to paper PMC6736568, “Discovery of Novel Anti-cryptosporidial Activities From Natural Products by in vitro High-Throughput Phenotypic Screening” (Frontiers in Microbiology, 2019):
Where a name gives a salt, the structure may show the parent alone. Read-outs that look alike come from different tables or passages of the source.

Tests used:
in vitro = settings: for cytotoxicity at 41 h, 10 µM: human
Cryptosporidium parvum = experiment: qRT-PCR assay of the growth of C. parvum in vitro in HCT-8 host cells (primary and secondary screening, EC50); format: cell-based; settings: Cryptosporidium parvum, HCT-8; for inhibition at 3.3 µM: secondary screening at 3.3 uM, read-out: % Inhibition (3.3 uM)
[1] = primary screening at 10 uM, treated vs control
[2] = primary screening at 10 uM, read-out: Inhibition (%)

CC1=C2C(=CO[C@H](C)[C@H]2C)C(O)=C(C(=O)O)C1=O [CITRININ]
cytotoxicity at 10 µM (in vitro): 8.3%
Hs18S ΔCT (HCT-8 host cells (Hs18S); [1]): 0.13
inhibition at 10 µM (Cryptosporidium parvum; [2]): 8.51%

COc1cc(OC)c2ccc(=O)oc2c1 [CITROPTEN]
cytotoxicity at 41 h, 10 µM (in vitro): 23.1%
Hs18S ΔCT (HCT-8 host cells (Hs18S); human, 41 h, 10 μM): 0.38
inhibition at 10 µM (Cryptosporidium parvum; [2]): -43.6%

NC(=O)NCCC[C@H](N)C(=O)O [CITRULLINE]
cytotoxicity at 10 µM (in vitro): 34.9%
Hs18S ΔCT (HCT-8 host cells (Hs18S); [1]): 0.62
inhibition at 10 µM (Cryptosporidium parvum; [2]): -44.7%

CC(=O)OC1CCC23CC1(C)CCC2C(C)(C)CC3OC(C)=O (centres unmarked) [CLOVANEDIOL DIACETATE]
cytotoxicity at 41 h, 10 µM (in vitro): 31.9%
Hs18S ΔCT (HCT-8 host cells (Hs18S); human, 41 h, 10 μM): 0.55
inhibition at 10 µM (Cryptosporidium parvum; [2]): -0.83%

COc1cc2c(c(OC)c1OC)-c1ccc(=O)c(O)cc1[C@@H](NC(C)=O)CC2 [COLCHICEINE]
cytotoxicity at 10 µM (in vitro): -34.9%
Hs18S ΔCT (HCT-8 host cells (Hs18S); [1]): -0.43
inhibition at 10 µM (Cryptosporidium parvum; [2]): 13.7%

COc1cc2c(c(OC)c1OC)-c1ccc(OC)c(=O)cc1[C@@H](NC(C)=O)CC2 [COLCHICINE]
cytotoxicity at 10 µM (in vitro): -26.5%
Hs18S ΔCT (HCT-8 host cells (Hs18S); [1]): -0.34
inhibition at 10 µM (Cryptosporidium parvum; [2]): 24.9%

C=C[C@@]1(C)CC(=O)[C@]2(O)[C@@]3(C)[C@@H](O)CCC(C)(C)[C@@H]3[C@H](O)[C@H](OC(C)=O)[C@@]2(C)O1 [COLFORSIN]
cytotoxicity at 41 h, 10 µM (in vitro): 9.4%
Hs18S ΔCT (HCT-8 host cells (Hs18S); human, 41 h, 10 μM): 0.14
inhibition at 10 µM (Cryptosporidium parvum; [2]): 24.8%

C[C@H]1[C@H]2CC[C@H]3[C@@H]4CC=C5C[C@@H](N(C)C)CC[C@]5(C)[C@H]4CC[C@]23CN1C [CONESSINE]
cytotoxicity at 41 h, 10 µM (in vitro): -10.4%
Hs18S ΔCT (HCT-8 host cells (Hs18S); human, 41 h, 10 μM): -0.14
inhibition at 10 µM (Cryptosporidium parvum; [2]): -2.33%

COc1c2c(cc3c1OCO3)CC[N+](C)=C2 [COTARNINE CHLORIDE]
cytotoxicity at 41 h, 10 µM (in vitro): -15.2%
Hs18S ΔCT (HCT-8 host cells (Hs18S); human, 41 h, 10 μM): -0.20
inhibition at 10 µM (Cryptosporidium parvum; [2]): -14.5%

CN1C(=O)CC[C@H]1c1cccnc1 [COTININE]
cytotoxicity at 41 h, 10 µM (in vitro): 24.7%
Hs18S ΔCT (HCT-8 host cells (Hs18S); human, 41 h, 10 μM): 0.41
inhibition at 10 µM (Cryptosporidium parvum; [2]): 42.6%

O=c1ccc2ccccc2o1 [COUMARIN]
cytotoxicity at 41 h, 10 µM (in vitro): -3.8%
Hs18S ΔCT (HCT-8 host cells (Hs18S); human, 41 h, 10 μM): -0.05
inhibition at 10 µM (Cryptosporidium parvum; [2]): 13%

CN1CC(=O)NC1=N [CREATININE]
cytotoxicity at 41 h, 10 µM (in vitro): 0.2%
Hs18S ΔCT (HCT-8 host cells (Hs18S); human, 41 h, 10 μM): 0.00
inhibition at 10 µM (Cryptosporidium parvum; [2]): 20.5%

CC(C)(O)CC[C@@H](O)[C@](C)(O)[C@H]1CC[C@@]2(O)C3=CC(=O)[C@@H]4C[C@@H](O)[C@@H](O)C[C@]4(C)[C@H]3CC[C@]12C [CRUSTECDYSONE]
cytotoxicity at 41 h, 10 µM (in vitro): -10.6%
Hs18S ΔCT (HCT-8 host cells (Hs18S); [1]): -0.15
inhibition at 10 µM (Cryptosporidium parvum; [2]): 39.8%

C[C@H]1COC2=C1C(=O)C(=O)c1c2ccc2c1CCCC2(C)C [CRYPTOTANSHINONE]
cytotoxicity at 10 µM (in vitro): 11.9%
Hs18S ΔCT (HCT-8 host cells (Hs18S); [1]): 0.18
inhibition at 10 µM (Cryptosporidium parvum; [2]): 95.3%
inhibition at 3.3 µM (Cryptosporidium parvum): -85%

COc1cc(/C=C/C(=O)CC(=O)/C=C/c2ccc(O)c(OC)c2)ccc1O [CURCUMIN]
cytotoxicity at 41 h, 10 µM (in vitro): 2.4%
Hs18S ΔCT (HCT-8 host cells (Hs18S); [1]): 0.03
inhibition at 10 µM (Cryptosporidium parvum; [2]): 24.3%

NCCSSCCN [CYSTAMINE DIHYDROCHLORIDE]
cytotoxicity at 41 h, 10 µM (in vitro): -11.2%
Hs18S ΔCT (HCT-8 host cells (Hs18S); human, 41 h, 10 μM): -0.15
inhibition at 10 µM (Cryptosporidium parvum; [2]): 5.08%

Nc1ccn([C@@H]2O[C@H](CO)[C@@H](O)[C@H]2O)c(=O)n1 [CYTIDINE]
cytotoxicity at 41 h, 10 µM (in vitro): -44.6%
Hs18S ΔCT (HCT-8 host cells (Hs18S); human, 41 h, 10 μM): -0.53
inhibition at 10 µM (Cryptosporidium parvum; [2]): 36.7%

O=c1cccc2n1C[C@@H]1CNC[C@H]2C1 [CYTISINE]
cytotoxicity at 10 µM (in vitro): -20%
Hs18S ΔCT (HCT-8 host cells (Hs18S)): -0.26
inhibition at 10 µM (Cryptosporidium parvum): 16%

O=c1c(-c2ccc(O)cc2)coc2cc(O)ccc12 [DAIDZEIN]
cytotoxicity at 41 h, 10 µM (in vitro): 0.7%
Hs18S ΔCT (HCT-8 host cells (Hs18S); human, 41 h, 10 μM): 0.01
inhibition at 10 µM (Cryptosporidium parvum; [2]): 39.2%

C=CC(C1=CC(=O)C(OC)=CC1=O)c1ccc(O)cc1 (centres unmarked) [DALBERGIONE, 4-METHOXY-4'-HYDROXY-]
cytotoxicity at 41 h, 10 µM (in vitro): 6.1%
Hs18S ΔCT (HCT-8 host cells (Hs18S); human, 41 h, 10 μM): 0.09
inhibition at 10 µM (Cryptosporidium parvum; [2]): 30.3%

C=CC(C1=CC(=O)C=CC1=O)c1ccccc1 (centres unmarked) [DALBERGIONE]
cytotoxicity at 41 h, 10 µM (in vitro): 20.4%
Hs18S ΔCT (HCT-8 host cells (Hs18S); human, 41 h, 10 μM): 0.33
inhibition at 10 µM (Cryptosporidium parvum; [2]): 32.8%

O=C1c2cccc(O)c2C(=O)c2c(O)cccc21 [DANTHRON]
cytotoxicity at 41 h, 10 µM (in vitro): -8.6%
Hs18S ΔCT (HCT-8 host cells (Hs18S); [1]): -0.12
inhibition at 10 µM (Cryptosporidium parvum; [2]): 23%

CC(=O)N(O)CCCCCNC(=O)CCC(=O)N(O)CCCCCNC(=O)CCC(=O)N(O)CCCCCN [DEFEROXAMINE MESYLATE]
cytotoxicity at 41 h, 10 µM (in vitro): 19.6%
Hs18S ΔCT (HCT-8 host cells (Hs18S); human, 41 h, 10 μM): 0.31
inhibition at 10 µM (Cryptosporidium parvum; [2]): -48.5%

CC(C)c1ccc2c(c1)CC[C@H]1[C@](C)(C(N)=O)CCC[C@]21C [DEHYDROABIETAMIDE]
cytotoxicity at 41 h, 10 µM (in vitro): -0.7%
Hs18S ΔCT (HCT-8 host cells (Hs18S); human, 41 h, 10 μM): -0.01
inhibition at 10 µM (Cryptosporidium parvum; [2]): 8.3%

C[C@H](CCC(=O)O)[C@H]1CC[C@H]2[C@@H]3C(=O)C[C@@H]4CC(=O)CC[C@]4(C)[C@H]3CC(=O)[C@]12C [DEHYDROCHOLIC ACID]
cytotoxicity at 41 h, 10 µM (in vitro): -4.2%
Hs18S ΔCT (HCT-8 host cells (Hs18S); human, 41 h, 10 μM): -0.06
inhibition at 10 µM (Cryptosporidium parvum; [2]): -24.5%

COc1cc2c(cc1OC)-c1c(oc3c4c(ccc3c1=O)OC(C(C)C)C4)CO2 (centres unmarked) [DEHYDRODIHYDROROTENONE]
cytotoxicity at 10 µM (in vitro): 4.4%
Hs18S ΔCT (HCT-8 host cells (Hs18S); [1]): 0.06
inhibition at 10 µM (Cryptosporidium parvum; [2]): -21.6%

C[C@]12CC[C@H](O)CC1=CC[C@@H]1[C@@H]2CC[C@]2(C)C(=O)CC[C@@H]12 [DEHYDROEPIANDROSTERONE]
cytotoxicity at 10 µM (in vitro): -1.9%
Hs18S ΔCT (HCT-8 host cells (Hs18S); [1]): -0.03
inhibition at 10 µM (Cryptosporidium parvum; [2]): 7.05%

C=C(C)[C@H]1Cc2c(ccc3c(=O)c4c(oc23)COc2cc(OC)c(OC)cc2-4)O1 [DEHYDROROTENONE]
cytotoxicity at 10 µM (in vitro): -4.9%
Hs18S ΔCT (HCT-8 host cells (Hs18S); [1]): -0.07
inhibition at 10 µM (Cryptosporidium parvum; [2]): -38.5%

COc1ccc2c(c1)OCc1c-2oc2cc(OC)ccc12 [DEHYDROVARIABILIN]
cytotoxicity at 41 h, 10 µM (in vitro): -33.6%
Hs18S ΔCT (HCT-8 host cells (Hs18S); human, 41 h, 10 μM): -0.42
inhibition at 10 µM (Cryptosporidium parvum; [2]): 22%

Nc1ncnc2c1ncn2[C@H]1C[C@H](O)[C@@H](CO)O1 [DEOXYADENOSINE]
cytotoxicity at 41 h, 10 µM (in vitro): -27.3%
Hs18S ΔCT (HCT-8 host cells (Hs18S); human, 41 h, 10 μM): -0.35
inhibition at 10 µM (Cryptosporidium parvum; [2]): 44.5%

C[C@H](CCC(=O)O)[C@H]1CC[C@H]2[C@@H]3CC[C@@H]4C[C@H](O)CC[C@]4(C)[C@H]3C[C@H](O)[C@]12C [DEOXYCHOLIC ACID]
cytotoxicity at 41 h, 10 µM (in vitro): 31.7%
Hs18S ΔCT (HCT-8 host cells (Hs18S); human, 41 h, 10 μM): 0.55
inhibition at 10 µM (Cryptosporidium parvum; [2]): -39.8%

COc1cc(OC)c2c(OC)c(-c3ccc4c(c3)OCO4)c(=O)oc2c1 [DERRUSNIN]
cytotoxicity at 10 µM (in vitro): -7.3%
Hs18S ΔCT (HCT-8 host cells (Hs18S); [1]): -0.10
inhibition at 10 µM (Cryptosporidium parvum; [2]): 14.8%

COc1cc(OC)c2c(=O)c(-c3ccc4c(c3)OCO4)coc2c1 [DERRUSTONE]
cytotoxicity at 41 h, 10 µM (in vitro): 23.9%
Hs18S ΔCT (HCT-8 host cells (Hs18S); human, 41 h, 10 μM): 0.39
inhibition at 10 µM (Cryptosporidium parvum; [2]): 61.3%
inhibition at 3.3 µM (Cryptosporidium parvum): -77%

C=CCSCC=C [DIALLYL SULFIDE]
cytotoxicity at 41 h, 10 µM (in vitro): -0.8%
Hs18S ΔCT (HCT-8 host cells (Hs18S); human, 41 h, 10 μM): -0.01
inhibition at 10 µM (Cryptosporidium parvum; [2]): 19.6%

COc1cc(C)c(C(=O)Oc2cc(C)c(C(=O)O)c(O)c2C)c(OC)c1C [DIFFRACTAIC ACID]
cytotoxicity at 41 h, 10 µM (in vitro): 46.7%
Hs18S ΔCT (HCT-8 host cells (Hs18S); human, 41 h, 10 μM): 0.91
inhibition at 10 µM (Cryptosporidium parvum; [2]): -3.8%

COc1cc(OC)c(-c2c(OC)cc(OC)cc2OC)c(OC)c1 [DIFUCOL HEXAMETHYL ETHER]
cytotoxicity at 10 µM (in vitro): 5.1%
Hs18S ΔCT (HCT-8 host cells (Hs18S); [1]): 0.08
inhibition at 10 µM (Cryptosporidium parvum; [2]): -10.9%

C[C@@H]1CC[C@@]2(OC1)O[C@H]1[C@@H](O)[C@H]3[C@@H]4CC[C@H]5C[C@@H](O[C@@H]6O[C@H](CO)[C@H](O[C@@H]7O[C@H](CO)[C@@H](O)[C@H](O[C@@H]8OC[C@@H](O)[C@H](O)[C@H]8O)[C@H]7O[C@@H]7O[C@H](CO)[C@H](O)[C@H](O[C@@H]8O[C@H](CO)[C@@H](O)[C@H](O)[C@H]8O)[C@H]7O)[C@H](O)[C@H]6O)[C@H](O)C[C@]5(C)[C@H]4CC[C@]3(C)[C@H]1[C@@H]2C [DIGITONIN]
cytotoxicity at 10 µM (in vitro): -8.8%
Hs18S ΔCT (HCT-8 host cells (Hs18S); [1]): -0.12
inhibition at 10 µM (Cryptosporidium parvum; [2]): -16.6%
